Two compounds from EP4600258A1, “KERATIN YK93-6, PREPARATION METHOD THEREFOR, PHARMACEUTICAL COMPOSITION THEREOF, AND USE THEREOF” (INSTITUTE OF MATERIA MEDICA, CHINESE ACADEMY OF MEDICAL …, priority 2022, dated 2024) can be followed below.

SMILES strings stand for the structures. Counter-ions that a name gives are not always drawn.

One data set deals with mouse pain model. Briefly: Pharmacodynamic test on mouse pain model (acetic acid-induced writhing). It is filed as in vivo, Male Kunming mice. The conditions noted are these: dose 50mg/kg; writhing within 15 minutes after 1% acetic acid intraperitoneally.
The subject of the next data set is EL-4 lymphoma. As to conditions: single time.
Where [1] appears, read: 100 mg/kg intraperitoneal, blood routine test, P<0.05.

Protocol for EL-4 lymphoma: Subcutaneous inoculation of EL-4 cell suspension to replicate a mouse lymphoma model: The EL-4 tumor tissue was ground into a suspension using a glass homogenizer, the tumor suspension was aspirated with a syringe, the number of live cells was calculated, the cell concentration was adjusted to 2.0*10^6/ml with physiological saline, and then the suspension was injected into the left armpit of mice with 0.2 ml/mouse. […] On the day of treatment, weight was measured, 20µl of blood was obtained from the orbital blood and the routine blood analysis was performed.
The data from the groups were compared with each other by T.TEST, and P<0.05 was considered as a significant difference.

As for `COc1cccc(C2(O)CCCCC2CN(C)C)c1` (stereo not drawn) [Tramadol Hydrochloride], the Number of writhing with mouse pain model came to 0.375±0.74.
With `O=P1(N(CCCl)CCCl)NCCCO1` (stereo not drawn) [cyclophosphamide, Cyclophosphamide], in the data set with EL-4 lymphoma (setting [1]), the leukocytes result is recorded as “significantly reduced”, the lymphocytes result is “significantly reduced”, the monocytes result is “significantly reduced” and the neutrophils result is recorded as “significantly reduced”. Further, in the data set with EL-4 lymphoma (dose 0.1 g/kg, intraperitoneal), the Tumor weight was 0.12 ± 0.03 g.
